Each block holds one compound with its values, some of them ahead of it.
Tests used:
Adenosine receptor A2a = Adenosine receptor A2a (Homo sapiens, UniProt P29274); assay: Displacement of [3H]CGS21680 from human recombinant adenosine A2A receptor
Adenosine receptor A1 = molecular target: T1, Adenosine receptor A1 (Homo sapiens, UniProt P30542); assay: Displacement of [3H]DPCPX from recombinant adenosine A1 receptor
T1 sequence (P30542 whole entry): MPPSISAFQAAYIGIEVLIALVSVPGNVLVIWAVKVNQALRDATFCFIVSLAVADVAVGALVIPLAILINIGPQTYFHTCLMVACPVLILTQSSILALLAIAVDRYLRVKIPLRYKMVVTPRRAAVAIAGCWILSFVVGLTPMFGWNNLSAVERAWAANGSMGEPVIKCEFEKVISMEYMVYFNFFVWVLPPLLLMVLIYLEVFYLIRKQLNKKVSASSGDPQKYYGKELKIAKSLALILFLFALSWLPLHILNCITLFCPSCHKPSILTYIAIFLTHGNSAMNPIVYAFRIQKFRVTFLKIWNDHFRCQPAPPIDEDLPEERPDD

Sequence of Adenosine receptor A2a (P29274 whole entry): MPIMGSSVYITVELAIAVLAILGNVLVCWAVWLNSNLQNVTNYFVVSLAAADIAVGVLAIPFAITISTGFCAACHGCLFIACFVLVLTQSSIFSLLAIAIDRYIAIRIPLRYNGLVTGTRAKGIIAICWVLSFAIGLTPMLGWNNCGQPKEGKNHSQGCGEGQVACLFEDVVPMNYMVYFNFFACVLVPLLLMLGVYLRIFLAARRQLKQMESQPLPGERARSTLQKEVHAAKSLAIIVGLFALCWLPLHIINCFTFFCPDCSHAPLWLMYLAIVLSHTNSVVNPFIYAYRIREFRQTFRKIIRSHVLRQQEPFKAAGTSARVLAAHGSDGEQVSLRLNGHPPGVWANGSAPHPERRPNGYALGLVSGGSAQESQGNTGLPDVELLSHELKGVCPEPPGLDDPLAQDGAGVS

SMILES: COc1cccc(-c2cc(C(F)(F)F)nc(NCc3ccc(F)cc3)n2)c1
- Ki (Adenosine receptor A2a): 290 nM (antagonist)
- Ki (Adenosine receptor A1): > 10000 nM

SMILES: CCSc1nc(N)nc(-c2ccccc2)n1
- Ki (Adenosine receptor A2a): 5 nM (antagonist)
- Ki (Adenosine receptor A1): 67 nM (antagonist)

SMILES: N#Cc1c(N)nc2c(c1-c1ccc(F)cc1)CCC2
- Ki (Adenosine receptor A2a): 232 nM (antagonist)

SMILES: CSc1nc(N)nc(-c2cccc(-c3ccc4[nH]ccc4c3)c2)n1
- Ki (Adenosine receptor A2a): 31 nM (antagonist)
- Ki (Adenosine receptor A1): 218 nM (antagonist)

SMILES: COc1cc(-c2cc(-c3ccc(O)cc3)nc(N)c2C#N)ccc1O
- Ki (Adenosine receptor A2a): 151 nM (antagonist)
- Ki (Adenosine receptor A1): 94 nM (antagonist)

SMILES: N#Cc1c(-c2ccc(Cl)cc2)cc(-c2ccccc2Cl)nc1N
- Ki (Adenosine receptor A2a): 403 nM (antagonist)
- Ki (Adenosine receptor A1): 1740 nM (antagonist)

SMILES: N#Cc1c(-c2ccc(F)cc2)cc(-c2ccccc2)nc1N
- Ki (Adenosine receptor A2a): 87 nM (antagonist)
- Ki (Adenosine receptor A1): 59 nM (antagonist)

SMILES: COc1ccc(-c2cccc(-c3nc(N)nc(SC)n3)c2)cn1
- Ki (Adenosine receptor A2a): 23 nM (antagonist)
- Ki (Adenosine receptor A1): 840 nM (antagonist)

SMILES: N#Cc1c(-c2ccc(Cl)c(Cl)c2)cc(-c2cccnc2)nc1N
- Ki (Adenosine receptor A2a): 210 nM (antagonist)
- Ki (Adenosine receptor A1): > 10000 nM

Other lines, results leading:

- Ki (Adenosine receptor A2a): 106 nM (antagonist)
- Ki (Adenosine receptor A1): 865 nM (antagonist)
SMILES: N#Cc1c(-c2ccc(F)cc2)cc(C2CC2)nc1N

- Ki (Adenosine receptor A2a): 89 nM (antagonist)
- Ki (Adenosine receptor A1): 239 nM (antagonist)
SMILES: N#Cc1c(-c2ccccc2Cl)cc(-c2ccccc2)nc1N

- Ki (Adenosine receptor A2a): 287 nM (antagonist)
- Ki (Adenosine receptor A1): > 10000 nM
SMILES: Fc1ccc(CNc2nc(-c3ccccc3)cc(C(F)(F)F)n2)cc1

- Ki (Adenosine receptor A2a): 287 nM (antagonist)
- Ki (Adenosine receptor A1): > 10000 nM
SMILES: Fc1ccc(CNc2nc(-c3cccs3)cc(C(F)(F)F)n2)cc1

- Ki (Adenosine receptor A2a): 267 nM (antagonist)
- Ki (Adenosine receptor A1): 42 nM (antagonist)
SMILES: CCOc1cc(-c2cc(-c3ccc(O)cc3)nc(N)c2C#N)ccc1O

- Ki (Adenosine receptor A2a): 201 nM (antagonist)
- Ki (Adenosine receptor A1): 192 nM (antagonist)
SMILES: N#Cc1c(-c2ccc(Cl)cc2)cc(-c2ccccc2)nc1N

- Ki (Adenosine receptor A2a): 454 nM (antagonist)
- Ki (Adenosine receptor A1): > 10000 nM
SMILES: Fc1ccc(CNc2nc(-c3ccc(Cl)cc3)cc(C(F)(F)F)n2)cc1

- Ki (Adenosine receptor A2a): 118 nM (antagonist)
- Ki (Adenosine receptor A1): 274 nM (antagonist)
SMILES: Cc1ccc(-c2cc(-c3ccccc3)nc(N)c2C#N)cc1
